Measured values as given in patent publication US20190093170A1, “USE OF TRANSLATIONAL PROFILING TO IDENTIFY TARGET MOLECULES FOR THERAPEUTIC TREATMENT” (THE REGENTS OF THE UNIVERSITY OF CALIFORNIA, priority 2013, published 2019).

Assays:
[1] = system: PC3 human prostate cancer cells; test: Ribosome profiling: translational efficiency (ribosome footprint vs RNA-seq read density); assay type: cell-based; details: for PP242 TrlEff: 3-hour treatment with PP242 (2.5 μM) in PC3 cells;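 for all read-outs here: Per-gene footprint-to-mRNA density ratio averaged per codon over the coding sequence, scaled so the median gene equals 1.0 after excluding regulated genes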
Protocol: Given the critical role for mTOR in prostate cancer, PC3 human prostate cancer cells, in which mTOR is constitutively hyperactivated, were used to delineate translationally controlled gene expression networks upon complete or partial mTOR inhibition. Ribosome profiling was optimized to assess quantitatively ribosome occupancy genome-wide in cancer cells.
Cells were subsequently treated with cycloheximide (100 μg ml^−1; Sigma) and detergent lysis was performed in the dish. The lysate was treated with DNase and clarified, and a sample was taken for RNA-seq analysis. Lysates were subjected to ribosome footprinting by nuclease treatment. Ribosome-protected fragments were purified, and deep sequencing libraries were generated from these fragments, as well as from poly(A) mRNA purified from non-nuclease-treated lysates. These libraries were analyzed by sequencing on an Illumina GAII.
Ribosome footprint and RNA-seq sequencing reads were aligned against a library of transcripts from the UCSC Known Genes database GRCh37/hg19. The first 25 nucleotides of each read were aligned using Bowtie and this initial alignment was then extended to encompass the full fragment-derived portion of the sequencing read while excluding the linker sequence. Read density profiles were then constructed for the canonical transcript of each gene, using only reads with 0 or 1 total mismatches between the read sequence and the reference sequence, comprised of the transcript fragment followed by the linker sequence. Footprint reads were assigned to an A site nucleotide at position +15 to +17 of the alignment, based on the total fragment length; mRNA reads were assigned to the first nucleotide of the alignment. The average read density per codon was then computed for the coding sequence of each transcript, excluding the first 15 and last 5 codons, which can display atypical ribosome accumulation.
Average read density was used as a measure of mRNA abundance (RNA-seq reads) and of protein synthesis (ribosome profiling reads). For most analyses, genes were filtered to require at least 256 reads in the relevant RNA-seq samples. Translational efficiency was computed as the ratio of ribosome footprint read density to RNA-seq read density, scaled to normalize the translational efficiency of the median gene to 1.0 after excluding regulated genes (log 2 fold-change+1.5 after normalizing for the all-gene median). Changes in protein synthesis, mRNA abundance and translational efficiency were similarly computed as the ratio of read densities between different samples, normalized to give the median gene a ratio of 1.0. This normalization corrects for differences in the absolute number of sequencing reads obtained for different libraries.

[2] = system: YB1, MTA1, vimentin, and CD44; test: Western blot and qPCR of invasion genes in PC3 cells; assay type: cell-based, human; details: starting at 6 hr of treatment
Protocol: Western blot analysis was performed as previously described (Hsieh et al., Cancer Cell 17:249-261 (2010)) with antibodies specific to phospho-AKT^S473 (Cell Signaling), AKT (Cell Signaling), phospho-p70S6K^T389 (Cell Signaling), phospho-rpS6^S240/244 (Cell Signaling), rpS6 (Cell Signaling), phospho-4EBP1^T37/46 (Cell Signaling), 4EBP1 (Cell Signaling), 4EBP2 (Cell Signaling), YB1 (Cell Signaling), CD44 (Cell Signaling), LEF1 (Cell Signaling), PTEN (Cell Signaling), eEF2 (Cell Signaling), GAPDH (Cell Signaling), vimentin (BD Biosciences), eIF4E (BD Biosciences), Flag (Sigma), β-actin (Sigma), MTA1 (Santa Cruz Biotechnology), Twist (Santa Cruz Biotechnology), rpL28 (Santa Cruz Biotechnology), HA (Covance) and rictor (Bethyl Laboratory).
RNA was isolated using the manufacturer's protocol for RNA extraction with TRIzol Reagent (Invitrogen) using the Pure Link RNA mini kit (Invitrogen). RNA was DNase-treated with Pure Link Dnase (Invitrogen). DNase-treated RNA was transcribed to cDNA with SuperScript III First-Strand Synthesis System for RT-PCR (Invitrogen), and 1 μl of cDNA was used to run a SYBR green detection qPCR assay (SYBR Green Supermix and MyiQ2, Biorad). Primers were used at 200 nM.

**Q.** What does the source list for `CC(C)n1nc(-c2cc3cc(O)ccc3[nH]2)c2c(N)ncnc21` [PP242]?
**A.** PP242 TrlEff ([1]; gene ACD): −1.02; TrlEff ([1]; gene ACTG1): −1.40; TrlEff ([1]; gene AGRN): −1.29; TrlEff ([1]; gene ALKBH7): −1.27; TrlEff ([1]; gene AP2A1): −1.32; TrlEff ([1]; gene ARD1A): −1.05; TrlEff ([1]; gene ATP5G2): −1.01; PP242 TrlEff ([1]; gene C17orf28): −0.20; TrlEff ([1]; gene C21orf66): −1.03; PP242 TrlEff ([1]; gene CCNA1): 0.66; TrlEff ([1]; gene CCNI): −1.33; TrlEff ([1]; gene CD44): −1.29; TrlEff ([1]; gene CIRBP): −1.08; TrlEff ([1]; gene CLPTM1): −1.13; TrlEff ([1]; gene COL6A2): −1.29; TrlEff ([1]; gene CRTAP): −2.50; PP242 TrlEff ([1]; gene DDX51): −0.51; PP242 TrlEff ([1]; gene DGCR2): 0.02; TrlEff ([1]; gene ECSIT): −1.06; PP242 TrlEff ([1]; gene EEF1A1): −3.53; TrlEff ([1]; gene EEF1A2): −1.94; TrlEff ([1]; gene EEF1D): −2.37; TrlEff ([1]; gene EEF1G): −2.26; TrlEff ([1]; gene EEF2): −3.60; TrlEff ([1]; gene EIF3H): −1.54; TrlEff ([1]; gene EIF3L): −1.47; TrlEff ([1]; gene EIF4B): −2.27; TrlEff ([1]; gene EVPL): −0.79; TrlEff ([1]; gene FAM83H): −1.11; TrlEff ([1]; gene FAM128B): −1.47; TrlEff ([1]; gene FASN): −1.42; TrlEff ([1]; gene GLTSCR2): −2.12; TrlEff ([1]; gene GNB2L1): −2.35; PP242 TrlEff ([1]; gene GTPBP3): −0.83; TrlEff ([1]; gene HNRNPA1): −2.12; TrlEff ([1]; gene HSPA8): −2.25; TrlEff ([1]; gene IMPDH2): −1.33; TrlEff ([1]; gene LAMA5): −0.94; TrlEff ([1]; gene LMF2): −1.36; PP242 TrlEff ([1]; gene MAPK6): −0.29; PP242 TrlEff ([1]; gene MAPKAPK2): 0.92; TrlEff ([1]; gene MTA1): −1.09; TrlEff ([1]; gene NCLN): −0.76; PP242 TrlEff ([1]; gene NFATC21P): 0.35; PP242 TrlEff ([1]; gene NR2F1): −0.09; TrlEff ([1]; gene PABPC1): −2.09; TrlEff ([1]; gene PABPC4): −1.98; TrlEff ([1]; gene PACS1): −1.09; TrlEff ([1]; gene PFDN5): −1.38; TrlEff ([1]; gene PGLS): −1.11; TrlEff ([1]; gene PGM1): −1.35; TrlEff ([1]; gene PNKP): −0.79; PP242 TrlEff ([1]; gene PRKD3): 0.68; TrlEff ([1]; gene PTGES2): −0.65; TrlEff ([1]; gene RABGGTB): −1.46; PP242 TrlEff ([1]; gene RBPJ): −0.03; TrlEff ([1]; gene RPL3): −2.44; TrlEff ([1]; gene RPL4): −1.50; TrlEff ([1]; gene RPL7): −2.02; TrlEff ([1]; gene RPL7A): −2.30; TrlEff ([1]; gene RPL9): −1.59; TrlEff ([1]; gene RPL10): −2.46; TrlEff ([1]; gene RPL10A): −2.16; TrlEff ([1]; gene RPL11): −2.31; TrlEff ([1]; gene RPL12): −2.95; TrlEff ([1]; gene RPL13): −1.56; TrlEff ([1]; gene RPL13A): −3.10; TrlEff ([1]; gene RPL15): −1.20; TrlEff ([1]; gene RPL18A): −2.63; TrlEff ([1]; gene RPL19): −1.35; TrlEff ([1]; gene RPL21): −2.45; TrlEff ([1]; gene RPL22): −1.64; TrlEff ([1]; gene RPL24): −1.41; TrlEff ([1]; gene RPL26): −2.00; TrlEff ([1]; gene RPL27): −1.23; TrlEff ([1]; gene RPL27A): −2.53; TrlEff ([1]; gene RPL28): −2.54; PP242 TrlEff ([1]; gene RPL28): −3.48; TrlEff ([1]; gene RPL31): −2.10; TrlEff ([1]; gene RPL32): −2.33; TrlEff ([1]; gene RPL34): −2.63; TrlEff ([1]; gene RPL36A): −1.98; TrlEff ([1]; gene RPL37A): −2.38; TrlEff ([1]; gene RPL39): −2.41; PP242 TrlEff ([1]; gene RPL39): −2.53; TrlEff ([1]; gene RPL41): −1.28; TrlEff ([1]; gene RPLP0): −1.61; TrlEff ([1]; gene RPLP1): −2.06; TrlEff ([1]; gene RPLP2): −2.10; TrlEff ([1]; gene RPS2): −2.25; TrlEff ([1]; gene RPS3): −2.16; TrlEff ([1]; gene RPS3A): −2.17; TrlEff ([1]; gene RPS4X): −2.06; TrlEff ([1]; gene RPS5): −2.25; TrlEff ([1]; gene RPS7): −1151; TrlEff ([1]; gene RPS9): −2.27; TrlEff ([1]; gene RPS12): −3.00; TrlEff ([1]; gene RPS13): −1.54; TrlEff ([1]; gene RPS14): −1.50; TrlEff ([1]; gene RPS15): −1.19; TrlEff ([1]; gene RPS15A): −2.31; TrlEff ([1]; gene RPS19): −2.34; TrlEff ([1]; gene RPS20): −2.46; PP242 TrlEff ([1]; gene RPS20): −2.78; TrlEff ([1]; gene RPS21): −2.09; TrlEff ([1]; gene RPS25): −2.13; TrlEff ([1]; gene RPS27): −2.71; PP242 TrlEff ([1]; gene RPS27): −3.35; TrlEff ([1]; gene RPS27A): −1.61; TrlEff ([1]; gene RPS28): −2.67; PP242 TrlEff ([1]; gene SDCCAG10): 0.23; TrlEff ([1]; gene SLC19A1): −1.07; TrlEff ([1]; gene TKT): −1.58; TrlEff ([1]; gene TPT1): −1.94; TrlEff ([1]; gene TSC2): −1.09; TrlEff ([1]; gene UBA52): −1.62; PP242 TrlEff ([1]; gene UBTD2): 0.27; PP242 TrlEff ([1]; gene UCHL5): 0.40; PP242 TrlEff ([1]; gene VHL): 0.52; TrlEff ([1]; gene VIM): −2.38; TrlEff ([1]; gene YB1): −2.30; expression of YB1, MTA1, vimentin, and CD44 at the protein but not transcript level [2]: selective decrease
